The subject of one experiment is MDCK cells. Kind of experiment: Cisplatin induced in vitro kidney cell apoptosis (mitochondria membrane potential, DiOC6 staining). As to conditions: FIG. 1A. Type of experiment: cell-based, canine. On the procedure: Madin-Darby canine kidney (MDCK) cells (1.5×10^5 cells/mL) were cultured and maintained in Dulbecco's modified Eagle medium (DMEM) supplemented with 10% fetal bovine serum (FBS), 100 units/mL penicillin, […] streptomycin, 2 mM L-glutamine, non-essential amino acids and sodium pyruvate, and maintained in 5% CO2 at 37° C. until reached 80% confluence, then were subject to cell passages.
MDCK cells were cultured in according to procedures described in the “Materials and Methods” section. To start the experiment, MDCK cells were first incubated with 50 μM cisplatin for 4 hrs, then various concentrations of the compound of formula (I) ([…] or 100 μg/mL) or the YKII-10 composition of example 1.2 (25 to 100 μg/mL) were given to cisplatin-treated cells and further incubated for another 24 hrs. Mitochondria membrane potentials were then measured by staining the live cells with fluorescent dyes (e.g., 50 nM DiOC6), in which 50 nM DiOC6 were added to cells and incubated at 37° C. for 30 min. The cells were then washed twice with phosphate buffer solution before subjecting to microscopy analysis using the inverted fluorescent microscope. […] Results are illustrated in FIGS. 1A and 1B.

For the next experiment, the system named is Blb/c mice. Kind of experiment: Lipopolysaccharide (LPS) induced in vivo kidney inflammation, urine protein. The conditions noted are these: oral 100 mg/Kg; LPS 2.5 mg/Kg/day i.p. for 5 days; urine on day 5 and day 10; FIG. 3. As for the experimental part:
Blb/c mice were kept in pathogen-free environment under 12:12 light-dark cycle with food (laboratory rodent diet 5001 purchased from PMI Nutrition International Inc. MO, USA) and water (i.e., distilled water) provided ad libitum, ambient temperature and relative humidity were respectively set at 22±3° C. and 50±20%. All procedures involving animal studies of the present disclose e comply with the “Guideline for the Care and Use of Laboratory Animals” issued by The Chinese-Taipei Society of Laboratory Animal Sciences.
In this example, to evaluate the therapeutic or prophylactic function of the composition of example 1.2, animals were first injected intraperitoneally with lipopolysaccharide (LPS) to induce in vivo kidney inflammation before being subject to the treatment of the composition of example 1.2.
Blb/c mice (6 weeks old) were randomly assigned to two groups, and injected intraperitoneally with lipopolysaccharide (LPS, 2.5 mg/Kg/day) for 5 consecutive days so as to induce kidney inflammation. […] Urine samples were respectively collected on the fifth and the tenth day after the experiment started, and analyzed for the level of urine protein therein. […]

Each structure is given as a SMILES string.

Turning to `C[C@H](CCC(=O)O)[C@H]1C[C@H](O)[C@@]2(C)C3=C(C(=O)C[C@]12C)[C@@]1(C)CCC(=O)C(C)(C)[C@@H]1C[C@@H]3O` [compound of formula (I)], the “reversal of cisplatin-induced apoptosis of MDCK cell” value in the experiment with MDCK cells (50 μg/mL or 100 μg/mL for 24 hrs after 50 μM cisplatin for 4 hrs) is reported as “capable of reversing”. Besides, the “recovery on the membrane potential” value with MDCK cells (100 μg/mL for 24 hrs after 50 μM cisplatin for 4 hrs, MDCK cells) was “about 80%”. Further, the urine protein level result in the experiment with Blb/c mice was “effective in reducing”.
